Columns and labels:
[1] = Minolta L.A.B. (CIELAB) evaluation of lightening power on hair tresses; conditions: FIG. 1
Method: In all examples, the ΔE values were measured using a L.A.B. reading using the color measurement method of CIELAB which is used to mathematically compute and compare the color of hair tresses. The method was developed by CIE using L*, a* and b* values. L* represents the difference between light (where L*=100) and dark (where L* is 0); a represents the difference between green ([…]) and red (+a*); and b* represents the difference between yellow (+b*) and blue (−b*). This system then maps true color to a place on a three dimensional graph wherein the variables are calculated by the changes in their values and those changes are used to compute the ΔE value which is a change in color. Such a system is commercially known and used in the art.

[2] = Visual evaluation of the alkalizers' lightening power; conditions: conclusion from Tables 5 and 6, comparison of alkalizers
Excerpt: The examples above show hair lightening and hair coloring compositions. […]

SMILES	lift when added to ammonium hydroxide and MEA, versus the same component alone [1]	lift on the darker hair [2]
O=[Si]([O-])[O-].[Na+].[Na+] [sodium metasilicate]	synergistic lift	–
N [ammonium hydroxide]	–	highest amount of lift
